In brackets after ≈: the same amount, converted by molar mass. Like-named read-outs stand apart in the source and are kept apart here. Marks after values point to notes of the source that are not given here. Where a SMILES comes first, the peptide text is derived from it. Bridges are numbered along the chain shown (N, C = ends). [ ]: non-standard residue; d: D form. The star is where a group is joined. ξ: configuration not given here. dAoc(2) = CCCCCC[C@@H](N)C(=O)O; ξLac(3-iPr) = CC(C)CC(O)C(=O)O; Heptanoyl = CCCCCCC(=O)*; Nle = CCCC[C@H](N)C(=O)O; Octanoyl = CCCCCCCC(=O)*; Dab = NCC[C@H](N)C(=O)O; Hexanoyl = CCCCCC(=O)*
Assays:
Escherichia coli MAC21a = type: cell-based
From the text: (§1) E. coli strains: NDM-1 (multidrug resistant strain) and VAL10, VAL5 and MAC21 strains show intermediante resistance to quinolones

Escherichia coli NDM-1 = type: cell-based
From the text: as §1

Escherichia coli VAL 10 = type: cell-based
From the text: as §1

Escherichia coli VAL 5 = type: cell-based
From the text: as §1

[1] = test system: Escherichia coli ATCC 8739; type: cell-based
From the text: (§2) Bacterial strains used for the antibacterial activity tests were obtained from the American Type Culture Collection (ATCC, Rockville, MD, USA): • Non resistant Gram-negative bacterias: • Escherichia coli ATCC 8739 • Pseudomonas aeruginosa ATCC 9027 • Non resistant Gram-positive bacteria: • Staphylococcus aureus ATTC6538

[2] = test system: Pseudomonas aeruginosa ATCC 9027; type: cell-based
From the text: as §2

[3] = test system: Staphylococcus aureus ATTC6538; type: cell-based
From the text: as §2

[4] = test system: Pseudomonas aeruginosa 36a; type: cell-based
Description: (§7) For resistant and multi-drug resistant bacteria Gram negative bacteria, the test was essentially the same with slight changes in the amounts used: samples of a final volume of 100µL were prepared as follows: aliquots (50 µL) of a suspension containing bacteria at a concentration of 1.5x10^6 colony-forming units/mL in culture medium (MH, Muller Hinton Broth, Difco, USA), adjusted at pH 7.4, were added to 100µL of solution containing the peptide prepared from a stock solution of 1024 mg/L peptide in water in serial 2-fold dilutions in MH broth adjusted to pH 7.4

[5] = test system: Pseudomonas aeruginosa 38a; type: cell-based
Description: as §7

[6] = test system: Pseudomonas aeruginosa 21 R; conditions: P. aeruginosa 21R
Description: (§3) The antibacterial activity of the lipopeptides was measured in sterile 96-well plates (Corning Costar 3598 microtiter plates). Samples of a final volume of 200µL were prepared as follows: aliquots (100 µL) of a suspension containing bacteria at a concentration of 10^5 colony-forming units/mL in culture medium (MH, Muller Hinton Broth, Difco, USA), adjusted at pH 7.4, were added to 100µL of solution containing the peptide prepared from a stock solution of 1 mg/mL peptide in water in serial 2-fold dilutions in MH broth adjusted to pH 7.4 (Jorgensen and Turnide, 2003). Inhibition of bacterial growth was determined by measuring the absorbance at 492 nm with a Absorbance Microplate reader ELx 800 (Bio-tek Instruments) after an incubation of 18-20 h at 37°C. Antibacterial activities are expressed as the MIC, the concentration at which no growth is observed after 18-20 h of incubation. Microorganisms were cultured on Tryptycase Soy Broth (Pronadisa, Barcelona) and incubated at 37°C until growth. Then a loopfull was streaked on Trypticase Soy Agar (Pronadisa, Barcelona) and incubated at 37°C until colony formation occurs. Microorganisms were preserved on cryobilles (EAS laboratoire, France) at -20°C.
(§4) For resistant and multi-drug resistant bacteria Gram negative bacteria, the test was essentially the same with slight changes in the amounts used: samples of a final volume of 100µL were prepared as follows: aliquots (50 µL) of a suspension containing bacteria at a concentration of 1.5x10^6 colony-forming units/mL in culture medium (MH, Muller Hinton Broth, Difco, USA), adjusted at pH 7.4, were added to […] of solution containing the peptide prepared from a stock solution of 1024 mg/L peptide in water in serial 2-fold dilutions in MH broth adjusted to pH 7.4
(§5) Samples of resistant and multi-drug resistant bacteria were from clinical origin and not standardized: • Resistant Gram-negative bacterias used: • Escherichia coli VAL 5 • Escherichia coli VAL 10 • Escherichia coli MAC21a • Escherichia coli NDM-1 • Pseudomonas aeruginosa 36a • Pseudomonas aeruginosa 38a • Pseudomonas aeruginosa 21 R • Pseudomonas aeruginosa 21 S • Pseudomonas aeruginosa 12R • Pseudomonas aeruginosa 12S • Colistin-resistant A. baumannii CR49 • Colistin-resistant A. baumannii Ab99
(§6) P. aeruginosa strains are highly-resistant: For instance, 38a and 36a are resistant to Ceftazidime, Ciprofloxacin, Imipenem, Piperacillin-tazobactam; 21S is resistant to Ceftazidime, Ciprofloxacin, Imipenem, Piperacillin-tazobactam and tobramycin; 21 R is resistant to Ciprofloxacin, tobramycin and colistin; 12S is resistant to cefotoxin, piperacillin/tazobactam, aztreonam, gentamicin and amikacin; and 12R is resistant to ceftazidime, cefotoxin,cefepime, piperacillin/tazobactam, aztreonam,imipenem, gentamicin, amikacin and colistin.

[7] = test system: Pseudomonas aeruginosa 21 S; conditions: P. aeruginosa 21S
Description: as §3, §4, §5, §6

[8] = test system: Pseudomonas aeruginosa 12R; type: cell-based; conditions: P. aeruginosa 12R
Description: as §7
(§8) Samples of resistant and multi-drug resistant bacteria were from clinical origin and not standardized: • Resistant Gram-negative bacterias used: • Escherichia coli VAL 5 • Escherichia coli VAL 10 • Escherichia coli MAC21a • Escherichia coli NDM-1 • Pseudomonas aeruginosa 36a • Pseudomonas aeruginosa 38a • Pseudomonas aeruginosa 21 R • Pseudomonas aeruginosa 21 S • Pseudomonas aeruginosa 12R • Pseudomonas aeruginosa 12S • Colistin-resistant A. baumannii CR49 • Colistin-resistant A. baumannii Ab99 […]

[9] = test system: Pseudomonas aeruginosa 12S; type: cell-based; conditions: P. aeruginosa 12S
Description: as §7, §8

[10] = test system: Colistin-resistant A. baumannii CR49; type: cell-based
Description: as §7

[11] = test system: Colistin-resistant A. baumannii Ab99; type: cell-based
Description: as §7

| Structure (SMILES) | MIC (Escherichia coli MAC21a) [µg/mL] | MIC (Escherichia coli NDM-1) [µg/mL] | MIC (Escherichia coli VAL 10) [µg/mL] | MIC (Escherichia coli VAL 5) [µg/mL] | MIC [1] [µg/mL] | MIC ([2]; ATCC 9027) [µg/mL] | MIC [3] [µg/mL] | MIC ([4]; 36a) [µg/mL] | MIC ([5]; 38a) [µg/mL] | MIC [6] [µg/mL] | MIC [7] [µg/mL] | MIC [8] [µg/mL] | MIC [9] [µg/mL] | MIC [10] [µg/mL] | MIC [11] [µg/mL] | MIC ([4]; P. aeruginosa 36a) [µg/mL] | MIC ([5]; P. aeruginosa 38a) [µg/mL] | MIC ([2]; P. aeruginosa ATTC9027 (non-resistant)) |
| --- | --- | --- | --- | --- | --- | --- | --- | --- | --- | --- | --- | --- | --- | --- | --- | --- | --- | --- |
| CCCCCCC(=O)N[C@@H](CCN)C(=O)N[C@H](C(=O)N[C@@H](CCN)C(=O)N[C@H]1CSSC[C@H](C(N)=O)NC(=O)[C@H](CCN)NC(=O)[C@H](CCN)NC(=O)C(CC(C)C)OC(=O)[C@@H](CCCCCC)NC(=O)[C@H](CCN)NC1=O)[C@@H](C)O (stereo partly drawn) [Example 2, heptanoyl-Dab-Thr-Dab-cyclo(S-S)[Cys-Dab-DAoc-OLe-Dab-Dab-DCyc]] (Heptanoyl-[Dab]T[Dab]C[Dab][dAoc(2)][ξLac(3-iPr)][Dab][Dab][dC]-NH2; disulfide 4-10) | 8 (≈ 6.72 µM) | 1 (≈ 0.84 µM) | 32 (≈ 26.9 µM) | 1 (≈ 0.84 µM) | 4 (≈ 3.36 µM) | 1 to 2 | 64 (≈ 53.8 µM) | 1 (≈ 0.84 µM) | 0.125 (≈ 0.105 µM) | 2 (≈ 1.68 µM) | 0.25 (≈ 0.21 µM) | 0.25 (≈ 0.21 µM) | 0.25 (≈ 0.21 µM) | 16 (≈ 13.4 µM) | 16 (≈ 13.4 µM) |  |  |  |
| CCCCCCCC(=O)N[C@@H](CCN)C(=O)N[C@H](C(=O)N[C@@H](CCN)C(=O)N[C@H]1CSSC[C@H](C(N)=O)NC(=O)[C@H](CCN)NC(=O)[C@H](CCN)NC(=O)C(CC(C)C)OC(=O)[C@@H](CCCCCC)NC(=O)[C@H](CCN)NC1=O)[C@@H](C)O (stereo partly drawn) [Example 4, octanoyl-Dab-Thr-Dab-cyclo(S-S)[Cys-Dab-DAoc-OLe-Dab-Dab-DCys]] (Octanoyl-[Dab]T[Dab]C[Dab][dAoc(2)][ξLac(3-iPr)][Dab][Dab][dC]-NH2; disulfide 4-10) | 8 (≈ 6.64 µM) | 1 (≈ 0.83 µM) | 8 (≈ 6.64 µM) | 1 (≈ 0.83 µM) | 1 (≈ 0.83 µM) | 0.25 (≈ 0.208 µM) |  |  |  | 2 (≈ 1.66 µM) | 0.25 (≈ 0.208 µM) | 0.25 (≈ 0.208 µM) | 0.125 (≈ 0.104 µM) | 16 (≈ 13.3 µM) | 8 (≈ 6.64 µM) | 0.125 (≈ 0.104 µM) | 0.125 (≈ 0.104 µM) |  |
| CCCCCC[C@H]1NC(=O)[C@H](CCN)NC(=O)[C@@H](NC(=O)[C@H](CCN)NC(=O)[C@@H](NC(=O)[C@H](CCN)NC(=O)CCCCC)[C@@H](C)O)CSSC[C@H](C(N)=O)NC(=O)[C@H](CCN)NC(=O)[C@H](CCN)NC(=O)[C@H](CCCC)NC1=O [Example 7, hexanoyl-Dab-Thr-Dab-cyclo(S-S)[Cys-Dab-DAoc-Nle-Dab-Dab-DCys]] (Hexanoyl-[Dab]T[Dab]C[Dab][dAoc(2)][Nle][Dab][Dab][dC]-NH2; disulfide 4-10) |  |  |  |  | 8 (≈ 6.81 µM) |  | >32 |  |  |  |  |  |  |  |  |  |  | 1-2* µg/ml |
| CCCCCCC(=O)N[C@@H](Cc1c[nH]cn1)C(=O)N[C@H](C(=O)N[C@@H](CCN)C(=O)N[C@H]1CSSC[C@H](C(N)=O)NC(=O)[C@H](Cc2c[nH]cn2)NC(=O)[C@H](CCN)NC(=O)[C@H](CCCC)NC(=O)[C@@H](CCCCCC)NC(=O)[C@H](CCN)NC1=O)[C@@H](C)O [Example 6] (Heptanoyl-HT[Dab]C[Dab][dAoc(2)][Nle][Dab]H[dC]-NH2; disulfide 4-10) | 8 (≈ 6.33 µM) | 8 (≈ 6.33 µM) | 16 (≈ 12.7 µM) | 8 (≈ 6.33 µM) | 4 (≈ 3.17 µM) | 1 (≈ 0.791 µM) | 16 (≈ 12.7 µM) | 1 (≈ 0.791 µM) | 32 (≈ 25.3 µM) |  |  |  |  | 4 (≈ 3.17 µM) | 32 (≈ 25.3 µM) |  |  |  |
| CCCCCC[C@@H](N)C(=O)N[C@H](C(=O)N[C@@H](CCN)C(=O)N[C@H]1CSSC[C@H](C(N)=O)NC(=O)[C@H](CCN)NC(=O)[C@H](CCN)NC(=O)C(CC(C)C)OC(=O)[C@@H](CCCCCC)NC(=O)[C@H](CCN)NC1=O)[C@@H](C)O (stereo partly drawn) [Example 3, DAoc-Thr-Dab-cyclo(S-S)[Cys-Dab-DAoc-OLe-Dab-Dab-DCys]] (H-[dAoc(2)]T[Dab]C[Dab][dAoc(2)][ξLac(3-iPr)][Dab][Dab][dC]-NH2; disulfide 4-10) | 8 (≈ 7.15 µM) | 2 (≈ 1.79 µM) | 16 (≈ 14.3 µM) | 2 (≈ 1.79 µM) | 2 (≈ 1.79 µM) | 0.25 (≈ 0.223 µM) |  | 0.5 (≈ 0.447 µM) | 4 (≈ 3.57 µM) | 0.125 (≈ 0.112 µM) | 0.25 (≈ 0.223 µM) | 0.25 (≈ 0.223 µM) | 0.5 (≈ 0.447 µM) | 8 (≈ 7.15 µM) | 8 (≈ 7.15 µM) |  |  |  |
| CCCCCCC(=O)N[C@@H](CCN)C(=O)N[C@H](C(=O)N[C@@H](CCN)C(=O)N[C@H]1CSSC[C@H](C(N)=O)NC(=O)[C@H](CCN)NC(=O)[C@H](CCN)NC(=O)[C@H](CCCC)NC(=O)[C@@H](CCCCCC)NC(=O)[C@H](CCN)NC1=O)[C@@H](C)O [Example 1, heptanoyl-Dab-Thr-Dab-cyclo(S-S)[Cys-Dab-DAoc-Nle-Dab-Dab-DCys]] (Heptanoyl-[Dab]T[Dab]C[Dab][dAoc(2)][Nle][Dab][Dab][dC]-NH2; disulfide 4-10) | <0.5 | ≤ 0.5 | 1 (≈ 0.841 µM) | 1 (≈ 0.841 µM) | 0.5 to 1 | 0.5 (≈ 0.42 µM) | 16 (≈ 13.5 µM) | 0.06 (≈ 0.0504 µM) | 0.03 (≈ 0.0252 µM) | 0.25 (≈ 0.21 µM) | 0.03 (≈ 0.0252 µM) | 1 (≈ 0.841 µM) | 0.5 (≈ 0.42 µM) |  |  |  |  |  |
| CCCCCC[C@H]1NC(=O)[C@H](CCN)NC(=O)[C@@H](NC(=O)[C@H](CCN)NC(=O)[C@@H](NC(=O)[C@H](CCN)NC(=O)CCCCC)[C@@H](C)O)CSSC[C@H](C(N)=O)NC(=O)[C@H](CCN)NC(=O)[C@H](CCN)NC(=O)C(CC(C)C)OC1=O (stereo partly drawn) [Example 5, hexanoyl-Dab-Thr-Dab-cyclo(S-S)[Cys-Dab-DAoc-OLe-Dab-Dab-DCys]] (Hexanoyl-[Dab]T[Dab]C[Dab][dAoc(2)][ξLac(3-iPr)][Dab][Dab][dC]-NH2; disulfide 4-10) |  |  |  |  | 2 to 4 | <0.25 | 32 (≈ 27.2 µM) |  |  |  |  |  |  |  |  |  |  |  |
